Source: article PMC12462173, “Evaluation of in vitro drug-drug interactions of ivermectin and antimalarial compounds” (Malaria Journal, 2025)
Where “and” joins values, the source holds several entries; their conditions need not be identical. Equal entries are not always repeated. Entries after “also recorded” stand apart in the source; their conditions may differ. One block for each compound: values may come before it.

What was measured:
[1] = reported peak concentration in a patient population associated with standard dosing; cited from earlier work
[2] = enzymes that metabolize the drug; cited from earlier work
[3] = test system: pooled human liver microsomes; assay: In vitro metabolism of ivermectin in pooled human liver microsomes, alone and co-incubated with an antimalarial (CYP-mediated DDI)
Protocol: Pooled human liver microsomes (containing 20 mg/mL protein) were thawed on ice, and the reactions were conducted in a 96-well plate (1 mL, Agilent Technologies, Santa Clara, CA, USA). The assay buffer consisted of 0.1 M potassium phosphate buffer (pH 7.4). The premix solutions for each condition were prepared with specific volumes of each component, as outlined in Table S1. The premix solution was prepared by combining ivermectin, antimalarial drug, microsomes, and buffer. Three replicates of each premix solution were prepared, and 475 µL of each premix was transferred into separate wells of the 96-well plate. The plate was incubated at 37 °C for 5 min with gentle shaking (300 rpm). Following incubation, 25 µL of 20 mM NADPH was added to each well, and the solution was mixed thoroughly. The final incubation mixture (500 µL) contained a total microsome concentration of 0.53 mg/mL. To monitor the metabolism of ivermectin, 50 µL from each well was collected at 0, 15, 30, 45, 60, 90, 120, and 150 min and transferred to a new plate containing 200 µL of cold acetonitrile and 100 ng/mL of ivermectin-D2 (internal standard). The collection plate was kept on ice during sampling. After sample collection, the plate was sealed and centrifuged at 1,100 × g for 15 min at 4 °C. A 100 µL aliquot of the clear supernatant was transferred to a new plate for immediate LC–MS analysis.
The LC system consisted of an Agilent 1260 quaternary pump, an Agilent 1260 autosampler (set at 6 °C), and an Agilent 1290 column compartment (set at 40 °C). Five µL of sample was analysed on an Acquity UPLC HSS T3 reversed-phase column (2.1 × 100 mm, 1.8 μm) with a precolumn (2.1 × 5 mm, 1.8 μm) under a linear gradient. The mobile phase consisted of water with 10 mM ammonium acetate and 0.1% formic acid (A) and acetonitrile:water (95:5, v/v) with 10 mM ammonium acetate and 0.1% formic acid (B), at a flow rate of 0.3 mL/min. The gradient started at 75% B, ramped to 90% B over 2 min, held at 90% B for 4 min, and returned to 75% B in 0.1 min, with a 3.9-min re-equilibration. A Sciex TripleTOF 5600 + Q-TOF MS with DuoSpray ESI was used for LC–MS analysis in the positive mode, with source conditions set at 40 psi for ion source gas 1 (GS1) and gas 2 (GS2), 30 psi for curtain gas (CUR), 4,500 V for ion spray voltage floating (ISVF), 350 °C source temperature (TEM), and 120 V declustering potential (DP). Data were acquired from m/z 100–1,000 in TOF–MS scan mode using Analyst TF Software 1.8, and ivermectin quantification (ivermectin peak area/internal standard peak area) was performed with MultiQuant Software (Sciex, Framingham, MA, USA) with a high resolution TOF–MS scan mode.
The metabolism rate of ivermectin was evaluated based on the normalized peak area (%) of ivermectin over a total of 150 min of incubation. […] This normalized value was further adjusted relative to the pre-incubation ivermectin peak area (zero-minute sample) within a sample collection series, resulting in final ivermectin concentrations expressed as relative peak areas. All individual ivermectin concentrations (relative peak area) from triplicate incubations were fitted to an ordinary linear regression, separately conducted for ivermectin alone and ivermectin co-incubated with an antimalarial. The estimated (±95% CI) slope and intercept of the regression analysis was derived using GraphPad Prism v.10.4.2. Additionally, the slopes of the regression analyses were compared statistically between ivermectin alone and when co-incubation with an antimalarial, as an automated output from the regression analysis. Furthermore, the relative difference (%) in in vitro metabolism rate (i.e. difference between regression slopes) for ivermectin alone and when co-incubated with an antimalarial was calculated as shown in Eq. 1.

[4] = Rhesus macaques; cited from earlier work

SMILES: CO[C@H]1O[C@@H]2O[C@@]3(C)CC[C@H]4[C@H](C)CC[C@@H]([C@H]1C)[C@@]24OO3 [Artemether]
- Reported Cmax (ng/ml) [1]: 186 [11] ng/ml
- Metabolism pathway [2]: Major CYP2B6; Minor CYP3A4 [19, 20, 26]

SMILES: O=C1C(O)=C([C@H]2CC[C@H](c3ccc(Cl)cc3)CC2)C(=O)c2ccccc21 [Atovaquone]
- Reported Cmax (ng/ml) [1]: 13,300 [11] ng/ml
- Metabolism pathway [2]: Major CYP3A4; Minor CYP2C9 [21, 22]

SMILES: COc1ccc2nc3cc(Cl)ccc3c(Nc3cc(CN4CCCC4)c(O)c(CN4CCCC4)c3)c2n1 [Pyronaridine]
- Reported Cmax (ng/ml) [1]: 571 [12] ng/ml
- Metabolism pathway [2]: CYP1A2, CYP2D6, CYP3A4 [24]

SMILES: Clc1ccc2c(N3CCN(CCCN4CCN(c5ccnc6cc(Cl)ccc56)CC4)CC3)ccnc2c1 [Piperaquine]
- Reported Cmax (ng/ml) [1]: 568 [11] ng/ml
- Metabolism pathway [2]: Major CYP3A4; Minor CYP2C8 [14]

- DDI effect on the in vitro metabolism rate of ivermectin (class in words) [3]: substantial
SMILES: OC(c1cc(C(F)(F)F)nc2c(C(F)(F)F)cccc12)C1CCCCN1 (centres unmarked) [Mefloquine]
- Reported Cmax (ng/ml) [1]: 2700 [11] ng/ml

SMILES: COc1cc(NC(C)CCCN)c2ncccc2c1 (centres unmarked) [Primaquine]
- Reported Cmax (ng/ml) [1]: 167 [11] ng/ml
- Metabolism pathway [2]: Major CYP2D6; Minor CYP1A2 [23, 30]

SMILES: CCCCN(CCCC)CC(O)c1cc(Cl)cc2c1-c1ccc(Cl)cc1/C2=C/c1ccc(Cl)cc1 (centres unmarked) [Lumefantrine]
- Reported Cmax (ng/ml) [1]: 25,700 [11] ng/ml
- Metabolism pathway [2]: CYP3A4 [19, 20]

SMILES: CC[C@H](C)[C@H]1O[C@]2(CC[C@@H]1C)C[C@@H]1C[C@@H](C/C=C(\C)[C@@H](O[C@H]3C[C@H](OC)[C@@H](O[C@H]4C[C@H](OC)[C@@H](O)[C@H](C)O4)[C@H](C)O3)[C@@H](C)/C=C/C=C3\CO[C@@H]4[C@H](O)C(C)=C[C@@H](C(=O)O1)[C@]34O)O2 [Ivermectin]
- Reported Cmax (ng/ml) [1]: 119 [3] ng/ml
- Intercept (95%CI) of linear regression of ivermectin relative peak area (%), ivermectin alone ([3]; ivermectin 1 µM alone, control run paired with the antimalarial of the same table line): 97.6 (95.4-99.9) and 96.1 (94.1-98.1) and 98.0 (96.7-99.2) and 97.7 (96.2-99.2) and 98.0 (96.6-99.4) and 100.1 (98.5-101.7) and 97.8 (95.9-99.8)
- Metabolism pathway [2]: primarily metabolized by CYP3A4 and to a lesser extent CYP3A5 and CYP2C8; also recorded: Major CYP3A4; Minor CYP3A5, CYP2C8 [31, 32]

SMILES: COc1cc(C)c2c(Oc3cccc(C(F)(F)F)c3)c(OC)cc(NC(C)CCCN)c2n1 (centres unmarked) [Tafenoquine]
- Reported Cmax (ng/ml) [1]: 300 [13] ng/ml
- Metabolism pathway [2]: CYP2D6 [27]

SMILES: CCN(CC)Cc1cc(Nc2ccnc3cc(Cl)ccc23)ccc1O [Amodiaquine]
- Metabolism pathway [2]: Major CYP2C8; Minor CYP1A1, CYP1B1 [23, 28]

SMILES: CCc1nc(N)nc(N)c1-c1ccc(Cl)cc1 [Pyrimethamine]
- Reported Cmax (ng/ml) [1]: 280 [11] ng/ml
- DDI effect on the in vitro metabolism rate of ivermectin (class in words) [3]: little impact
- Intercept (95%CI) of linear regression of ivermectin relative peak area (%), combination ([3]; human, pH 7.4): 96.7 (95.0-98.3)
- Slope (95%CI) of linear regression of ivermectin relative peak area (%) over time, combination ([3]; human, pH 7.4): -0.21 (-0.24 to -0.19)
- Metabolism pathway [2]: CYP1B1, CYP2C9 [23]

SMILES: C[C@H]1[C@@H](O)O[C@@H]2O[C@@]3(C)CC[C@H]4[C@H](C)CC[C@@H]1[C@@]24OO3 [Dihydroartemisinin]
- Reported Cmax (ng/ml) [1]: 421 [3] ng/ml
- Metabolism pathway [2]: Glucuronidation by UGT1A9 and UGT2B7 [29]

SMILES: [H]/N=C(\N/C(=N/[H])Nc1ccc(Cl)cc1)NC(C)C [Proguanil]
- Reported Cmax (ng/ml) [1]: 750 [11] ng/ml
- Metabolism pathway [2]: CYP2C19 [18]

- DDI effect on the in vitro metabolism rate of ivermectin (class in words) [3]: substantial
SMILES: CCN(CC)CCCC(C)Nc1ccnc2cc(Cl)ccc12 (centres unmarked) [Chloroquine]
- Reported Cmax (ng/ml) [1]: 1430 [11] ng/ml
- Exposure to ivermectin on co-administration [4]: increased exposure to ivermectin

SMILES: C[C@H]1[C@H](OC(=O)CCC(=O)O)O[C@@H]2O[C@@]3(C)CC[C@H]4[C@H](C)CC[C@@H]1[C@@]24OO3 [Artesunate]
- Reported Cmax (ng/ml) [1]: 244 [11] ng/ml

SMILES: COc1ncnc(NS(=O)(=O)c2ccc(N)cc2)c1OC [Sulfadoxine]
- Reported Cmax (ng/ml) [1]: 130,000 [11] ng/ml
- Metabolism pathway [2]: Acetylation by N-Acetyltransferase 2 [25]
